Test results: ChEMBL document CHEMBL3865822, “New palbociclib analogues modified at the terminal piperazine ring and their anticancer activities” (Eur J Med Chem, 2016)
Each block holds one compound with its values, some of them ahead of it. Activity calls are given as the source filed them. No cut-off for these calls is given here.

Columns and labels:
[1] = Cytotoxicity against human MCF7 cells assessed as reduction in cell viability after 48 hrs by CCK8 assay; assay type: functional, cell-based; conditions: MCF7, 48 h
[2] = molecular target: Cyclin-dependent kinase 6 (Homo sapiens, UniProt Q00534); test: Inhibition of CDK6 (unknown origin) using histone H1 as substrate after 10 mins in presence of [gamma32P]ATP
Cyclin-dependent kinase 6, sequence (Q00534 whole entry): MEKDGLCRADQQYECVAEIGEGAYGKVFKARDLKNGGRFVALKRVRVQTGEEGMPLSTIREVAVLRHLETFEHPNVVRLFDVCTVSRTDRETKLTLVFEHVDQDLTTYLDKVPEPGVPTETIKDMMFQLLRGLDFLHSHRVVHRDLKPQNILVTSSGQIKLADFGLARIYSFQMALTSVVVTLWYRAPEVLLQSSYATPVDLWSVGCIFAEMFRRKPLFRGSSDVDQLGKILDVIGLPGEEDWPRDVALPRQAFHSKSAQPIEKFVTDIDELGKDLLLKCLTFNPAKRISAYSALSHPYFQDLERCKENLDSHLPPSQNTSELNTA

[3] = Cytotoxicity against human MDA-MB-453 cells assessed as reduction in cell viability after 48 hrs by CCK8 assay; assay type: functional, cell-based; conditions: MDA-MB-453, 48 h
[4] = Cytotoxicity against human MDA-MB-231 cells assessed as reduction in cell viability after 48 hrs by CCK8 assay; assay type: functional, cell-based; conditions: MDA-MB-231, 48 h
[5] = molecular target: Cyclin-dependent kinase 4 (Homo sapiens, UniProt P11802); test: Inhibition of CDK4 (unknown origin) using histone H1 as substrate after 10 mins in presence of [gamma32P]ATP
Cyclin-dependent kinase 4, sequence (P11802 whole entry): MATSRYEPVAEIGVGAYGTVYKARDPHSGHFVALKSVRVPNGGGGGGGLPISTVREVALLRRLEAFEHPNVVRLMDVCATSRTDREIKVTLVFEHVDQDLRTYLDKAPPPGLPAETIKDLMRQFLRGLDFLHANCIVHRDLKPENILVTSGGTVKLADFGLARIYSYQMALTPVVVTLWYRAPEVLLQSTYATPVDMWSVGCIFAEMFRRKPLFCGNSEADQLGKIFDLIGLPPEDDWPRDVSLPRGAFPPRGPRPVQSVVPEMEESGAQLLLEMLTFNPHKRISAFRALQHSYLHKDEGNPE

MCF7 [6] = test: Antitumor activity against human […] human MCF7 cells xenografted in RNU rat assessed as tumor growth inhibition at 100 mg/kg/day, ig administered for 14 days measured on day 15; assay type: functional, organism-based
MCF7 [7] = test: Antitumor activity against […] human MCF7 cells xenografted in RNU rat assessed as tumor growth inhibition at 122.4 mg/kg/day, ig administered for 14 days measured on day 15; assay type: functional, organism-based
Rattus norvegicus [8] = test: Toxicity in RNU rat xenografted with human MCF7 cells assessed as reduction in body weight at 122.4 mg/kg/day, ig administered for 14 days measured daily during compound dosing; assay type: organism-based; conditions: in vivo, po, 336 h
MCF7 [9] = test: Antitumor activity against […] human MCF7 cells xenografted in RNU rat assessed as tumor growth inhibition at 128.8 mg/kg/day, ig administered for 14 days measured on day 15; assay type: functional, organism-based
Rattus norvegicus [10] = test: Toxicity in RNU rat xenografted with human MCF7 cells assessed as reduction in body weight at 128.8 mg/kg/day, ig administered for 14 days measured daily during compound dosing; assay type: organism-based; conditions: in vivo, po, 336 h

Compound: CC(=O)c1c(C)c2cnc(Nc3ccc(N4CCN(CCC(=O)O)CC4)cn3)nc2n(C2CCCC2)c1=O
- IC50 [1]: > 2000 nM

- IC50 [2]: 34 nM
- IC50 [5]: 25 nM
Compound: CCN1CCN(c2ccc(Nc3ncc4c(C)c(C(C)=O)c(=O)n(C5CCCC5)c4n3)nc2)CC1
- IC50 [1]: 542 nM
- IC50 [3]: 487 nM
- IC50 [4]: > 1000 nM

Compound: CC(=O)c1c(C)c2cnc(Nc3ccc(N4CCN(C(=O)OC(C)C)CC4)cn3)nc2n(C2CCCC2)c1=O
- IC50 [1]: > 2000 nM

Compound: CCCCOC(=O)N1CCN(c2ccc(Nc3ncc4c(C)c(C(C)=O)c(=O)n(C5CCCC5)c4n3)nc2)CC1
- IC50 [1]: > 2000 nM

Compound: CC(=O)c1c(C)c2cnc(Nc3ccc(N4CCNCC4)cn3)nc2n(C2CCCC2)c1=O [PALBOCICLIB]
- TGI (MCF7 [6]): Active
- IC50 [1]: 240 nM
- IC50 [3]: 137 nM
- IC50 [4]: 580 nM

Compound: CC(=O)c1c(C)c2cnc(Nc3ccc(N4CCN(C(C)=O)CC4)cn3)nc2n(C2CCCC2)c1=O
- IC50 [1]: > 2000 nM

Compound: COC(=O)N1CCN(c2ccc(Nc3ncc4c(C)c(C(C)=O)c(=O)n(C5CCCC5)c4n3)nc2)CC1
- IC50 [1]: > 2000 nM

Compound: CCCOC(=O)N1CCN(c2ccc(Nc3ncc4c(C)c(C(C)=O)c(=O)n(C5CCCC5)c4n3)nc2)CC1
- IC50 [1]: > 2000 nM

Compound: CC(=O)c1c(C)c2cnc(Nc3ccc(N4CCN(CCO)CC4)cn3)nc2n(C2CCCC2)c1=O
- IC50 [1]: 689 nM

Compound: CCCCCOC(=O)N1CCN(c2ccc(Nc3ncc4c(C)c(C(C)=O)c(=O)n(C5CCCC5)c4n3)nc2)CC1
- IC50 [1]: > 2000 nM

Compound: CCOC(=O)CCN1CCN(c2ccc(Nc3ncc4c(C)c(C(C)=O)c(=O)n(C5CCCC5)c4n3)nc2)CC1
- IC50 [1]: > 2000 nM

- IC50 [2]: 28 nM
- IC50 [5]: 32 nM
Compound: CC(=O)OCOC(=O)N1CCN(c2ccc(Nc3ncc4c(C)c(C(C)=O)c(=O)n(C5CCCC5)c4n3)nc2)CC1
- IC50 [1]: 371 nM
- IC50 [3]: 424 nM
- IC50 [4]: > 1000 nM

Compound: CC(=O)c1c(C)c2cnc(Nc3ccc(N4CCN(C(=O)CCC(=O)O)CC4)cn3)nc2n(C2CCCC2)c1=O
- IC50 [1]: > 2000 nM

Compound: CCOC(=O)CN1CCN(c2ccc(Nc3ncc4c(C)c(C(C)=O)c(=O)n(C5CCCC5)c4n3)nc2)CC1
- IC50 [1]: > 2000 nM

Compound: CC(=O)c1c(C)c2cnc(Nc3ccc(N4CCN(C(=O)CC#N)CC4)cn3)nc2n(C2CCCC2)c1=O
- IC50 [1]: 1520 nM

Compound: CC(=O)c1c(C)c2cnc(Nc3ccc(N4CCN(C(=O)OCC(C)C)CC4)cn3)nc2n(C2CCCC2)c1=O
- IC50 [1]: > 2000 nM

- IC50 [2]: 23 nM
- IC50 [5]: 19 nM
Compound: CC(=O)c1c(C)c2cnc(Nc3ccc(N4CCN(C(=O)CNCCN)CC4)cn3)nc2n(C2CCCC2)c1=O
- TGI (MCF7 [7]): Active
- IC50 [1]: 223 nM
- IC50 [3]: 259 nM
- IC50 [4]: 436 nM
- Activity (Rattus norvegicus [8]): Non-Toxic

- IC50 [2]: 18 nM
- IC50 [5]: 13 nM
Compound: COCCCNCC(=O)N1CCN(c2ccc(Nc3ncc4c(C)c(C(C)=O)c(=O)n(C5CCCC5)c4n3)nc2)CC1
- TGI (MCF7 [9]): Active
- IC50 [1]: 105 nM
- IC50 [3]: 93 nM
- IC50 [4]: 559 nM
- Activity (Rattus norvegicus [10]): Non-Toxic

Compound: COCCN1CCN(c2ccc(Nc3ncc4c(C)c(C(C)=O)c(=O)n(C5CCCC5)c4n3)nc2)CC1
- IC50 [1]: 893 nM

Compound: CCCC(=O)OCN1CCN(c2ccc(Nc3ncc4c(C)c(C(C)=O)c(=O)n(C5CCCC5)c4n3)nc2)CC1
- IC50 [1]: > 2000 nM
